Legend:
GII.4 Saga P dimers [1] = target: T1, GII.4 Saga P dimers (Norovirus Hu/GII-4/Saga4/2006/JP, UniProt B5BTR7); experiment: 1H, […] TROSY HSQC CSP titration; format: binding
T1 construct: isotope-labelled, non-deamidated

GII.17 Saitama/T87 VLPs = target: T2, GII.17 Saitama/T87 VLPs (Norovirus GII/Hu/JP/2002/GII.P16_GII.17/Saitama/T87, UniProt A0A076JB57); experiment: biochemical; parameters: STD NMR titration of norovirus VLPs with cholic acid, single saturation time 2 s; apparent KD from STD-AF
T2 construct: gene VP1; virus-like particles of VP1, arginine tail present; donated by G. Hansman
Description: Samples containing VLPs were prepared at 0.41 to 1 mg mL^−1 VP1 concentration (6.9 to 17.7 μM binding sites) in PBS pH 7.3, 100 μM [D6]DSS, 0.02 % NaN3 and 10 % D2O. […] Bile acid stock solution were prepared as described above for backbone chemical shift perturbation experiments. For N373D Saga P dimers, one sample containing 45 μM P dimers, 100 μM [D6]DSS in 20 mM fully deuterated sodium phosphate buffer (pH 7.45) was prepared and titrated with CA up to a final concentration of 12 mM. […] In one set of experiments we performed titrations at single saturation times of 2 s15 (cf. Figure S5 and Table S1). Another titration experiment made use of initial STD growth rates16 determined from STD build up curves (Figure S6 and Table S2). The initial growth rates were also used to derive a binding epitope for CA (Figures 2 and S3). The apparent K D values obtained are similar, with the value resulting from initial growth rates being slightly smaller, as expected.

GII.7 RKI VLPs = target: T3, GII.7 RKI VLPs (Norovirus Hu/GII.7/VLP 05G954/2005/DE, UniProt S5GGK6); experiment: STD NMR titration, single saturation time […] s; format: binding
T3 construct: virus-like particles of VP1, arginine tail present; gift of S. Taube

GII.17 Kawasaki308 VLPs = target: T4, GII.17 Kawasaki308 VLPs (Norovirus Hu/GII/JP/2015/GII.P17_GII.17/Kawasaki308, UniProt A0A0E4B1P1); experiment: STD NMR titration, single saturation time […] s; format: binding
T4 construct: gene VP1; virus-like particles of VP1, arginine tail present; donated by G. Hansman

GII.10 Vietnam026 VLPs = target: T5, GII.10 Vietnam026 VLPs (Norwalk virus, UniProt Q5F4T5); experiment: STD NMR titration, single saturation time […] s; format: binding
T5 construct: virus-like particles of VP1, arginine tail present; donated by G. Hansman

GII.4 Saga VLPs [2] = target: T6, GII.4 Saga VLPs (Norovirus Hu/GII-4/Saga4/2006/JP, UniProt B5BTR7); experiment: biochemical; parameters: STD NMR titration of norovirus VLPs with cholic acid; apparent KD from initial STD growth rates
T6 construct: virus-like particles of VP1, arginine tail present; donated by G. Hansman
Description: Samples containing VLPs were prepared at 0.41 to 1 mg mL^−1 VP1 concentration (6.9 to 17.7 μM binding sites) in PBS pH 7.3, 100 μM [D6]DSS, 0.02 % NaN3 and 10 % D2O. […] Bile acid stock solution were prepared as described above for backbone chemical shift perturbation experiments. For N373D Saga P dimers, one sample containing 45 μM P dimers, 100 μM [D6]DSS in 20 mM fully deuterated sodium phosphate buffer (pH 7.45) was prepared and titrated with CA up to a final concentration of 12 mM. with STD‐AFmax being the maximum STD‐AF for a given proton, k sat the saturation rate constant, and t sat the saturation time. Initial slopes STD‐AF0 were obtained from STD‐AF0=STD‐AFmax k sat, and were plotted as a function of the ligand concentration. Fitting Equation (1) to the resulting binding isotherms delivered dissociation constants K D. For curve fitting Origin2016G (OriginLab) was used. To compare P dimers to viral capsids, we also obtained STD NMR titration curves for CA binding to GII.4 Saga VLPs (Figure 3 D; Table 1, No. 5 and 6). In one set of experiments we performed titrations at single saturation times of 2 s15 (cf. Figure S5 and Table S1). Another titration experiment made use of initial STD growth rates16 determined from STD build up curves (Figure S6 and Table S2). The initial growth rates were also used to derive a binding epitope for CA (Figures 2 and S3). […]

[3] = target: T7, GII.17 Kawasaki308 P dimers (Norovirus Hu/GII/JP/2015/GII.P17_GII.17/Kawasaki308, UniProt A0A0E4B1P1); experiment: methyl TROSY CSP titration; format: binding
T7 construct: gene VP1; MIL(ProS)V(ProS)A methyl-labelled
Source text: methyl TROSY CSP titration on GII.17 Kawasaki308 P dimers

GII.4 Ast6139 VLPs = target: T8, GII.4 Ast6139 VLPs (Norwalk virus, UniProt Q70ET2); experiment: STD NMR titration, single saturation time […] s; format: binding
T8 construct: virus-like particles of VP1, arginine tail present; donated by F. Parra

GII.4 MI001 P dimers = target: T9, GII.4 MI001 P dimers (Norovirus Hu/GII.4/MI001/2011/USA, UniProt S5FWF8); experiment: 1H, […] TROSY HSQC CSP titration; format: binding
T9 construct: [U-2H,15N]-labelled

GI.1 Norwalk VLPs = target: T10, GI.1 Norwalk VLPs (Norovirus GI, UniProt A0A1S5QJB8); experiment: STD NMR titration, single saturation time […] s; format: binding; details: read-out: K D app; pH 7.3, 277 K, 10 % D2O; apparent, ligand aggregation
T10 construct: virus-like particles of VP1, arginine tail present; donated by G. Hansman

GII.4 Saga VLPs [4] = target: T6, GII.4 Saga VLPs; experiment: STD NMR titration, single saturation time […] s; format: binding
GII.4 Saga P dimers [5] = target: T1, GII.4 Saga P dimers; experiment: 1H, […] TROSY HSQC CSP; format: binding; details: 2 mM ligand, pH 7.3, 298 K; same site as CA
GII.4 Saga VLPs [6] = target: T6, GII.4 Saga VLPs; experiment: STD NMR; format: binding; details: pH 7.3, 277 K

C[C@H](CCC(=O)NCC(=O)O)[C@H]1CC[C@H]2[C@@H]3[C@H](O)C[C@@H]4C[C@H](O)CC[C@]4(C)[C@H]3CC[C@]12C [GCDCA, glycochenodeoxycholic acid]
Kd (GII.4 Saga P dimers [1]): 1.5 ± 0.3 mM

C[C@H](CCC(=O)O)[C@H]1CC[C@H]2[C@@H]3[C@H](O)C[C@@H]4C[C@H](O)CC[C@]4(C)[C@H]3C[C@H](O)[C@]12C [CA, cholic acid]
Kd (GII.17 Saitama/T87 VLPs): 6.6 ± 0.4 mM
Kd (GII.7 RKI VLPs): 10.9 ± 4.3 mM
Kd (GII.17 Kawasaki308 VLPs): 31.5 ± 2.8 mM
Kd (GII.10 Vietnam026 VLPs): 12.9 ± 2.9 mM
Kd (GII.4 Saga VLPs [2]): 3.6 ± 0.7 mM
Kd [3]: 20.1 ± 2.9 mM
Kd (GII.4 Saga P dimers [1]): 10 ± 0.6 mM
Kd (GII.4 Ast6139 VLPs): 26.5 ± 8 mM
Kd (GII.4 MI001 P dimers): 11.1 ± 0.9 mM
Kd (GI.1 Norwalk VLPs): 12.2 ± 1.8 mM
Kd (GII.4 Saga VLPs [4]): 4.7 ± 0.4 mM

C[C@H](CCC(=O)O)[C@H]1CC[C@H]2[C@@H]3CC[C@@H]4C[C@H](O)CC[C@]4(C)[C@H]3C[C@H](O)[C@]12C [DCA, deoxycholic acid]
1H,15N TROSY HSQC CSP (GII.4 Saga P dimers [5]): Binding of DCA, GCDCA, and CDCA yields very similar CSPs reflecting binding to the same site

C[C@H](CCC(=O)O)[C@H]1CC[C@H]2[C@@H]3[C@H](O)C[C@@H]4C[C@H](O)CC[C@]4(C)[C@H]3CC[C@]12C [CDCA, chenodeoxycholic acid]
1H,15N TROSY HSQC CSP (GII.4 Saga P dimers [5]): Binding of DCA, GCDCA, and CDCA yields very similar CSPs reflecting binding to the same site

C[C@H](CCC(=O)NCC(=O)O)[C@H]1CC[C@H]2[C@@H]3[C@H](O)C[C@@H]4C[C@H](O)CC[C@]4(C)[C@H]3C[C@H](O)[C@]12C [GCA, sodium glycocholate hydrate]
STD NMR (GII.4 Saga VLPs [6]; 1 mM ligand in presence of TCDCA (1 mM)): In each case STD NMR spectra indicate binding of bile acids to VLPs

C[C@H](CCC(=O)NCCS(=O)(=O)O)[C@H]1CC[C@H]2[C@@H]3[C@H](O)C[C@@H]4C[C@H](O)CC[C@]4(C)[C@H]3CC[C@]12C [TCDCA, sodium taurochenodeoxycholate]
STD NMR (GII.4 Saga VLPs [6]; 1 mM ligand in presence of GCA (1 mM)): In each case STD NMR spectra indicate binding of bile acids to VLPs

CC1(C)[C@@H](O[C@H]2O[C@H](C(=O)O)[C@@H](O)[C@H](O)[C@H]2O[C@@H]2O[C@H](C(=O)O)[C@@H](O)[C@H](O)[C@H]2O)CC[C@]2(C)[C@H]3C(=O)C=C4[C@@H]5C[C@@](C)(C(=O)O)CC[C@]5(C)CC[C@@]4(C)[C@]3(C)CC[C@@H]12 [GR, glycyrrhizic acid]
Kd (GII.4 Saga P dimers [1]): 13.8 ± 0.4 mM
